From patent publication US20140121373A1, “PROCESS FOR PREPARING STABLE POLYMORPHIC FORM OF ERLOTINIB HYDROCHLORIDE” (CADILA HEALTHCARE LIMITED, priority 2011, published 2014)

Test: Polymorphic stability study of the stable form of Erlotinib hydrochloride (PXRD, DSC, IR on storage)
Type: physicochemical
Conditions: for DSC / IR / PXRD: should comply with data of stable polymorphic form
Description: (Refrigerator), 25° C.±2° C./60%±5% RH, 30° C.±2° C./65%±5% RH (Real Time) and 40° C.±2° C./75%±5% RH of the stable form of Erlotinib Hydrochloride.
• Powder X-ray Diffraction: X-ray powder diffraction spectrum was observed on a MF 2100 2 KW X-ray Powder diffractometer of make Rigaku having a Copper Kα-radiation at a voltage of 40 kV and 30 mA. Approximately 150 mg sample was gently flattened on a quartz plate without further processing (e.g. Grinding and sieving) and scanned from 4° to 40° at 0.010° sampling width and 4.000° per minute. • IR Spectroscopy: The IR spectra was performed on 8400S of make Shimadzu by using KBr pellet and recorded from 4000 to 400 cm^−1. About 2 mg of sample was triturated with 300 mg of finely powdered and dried potassium bromide. The mixture was carefully grinded, spread uniformly in a suitable die and submitted it in vacuum to a pressure of about 800 MPa […]. From the FTIR spectrum a blank FT-IR spectrum of KBr was subtracted. The blank IR spectrum was recorded prior to the measurement of the samples.
Differential Scanning Calorimetry (DSC): Melting points are determined by means of a DSC thermogram using a Pyris-1 make Perkin Elmer. DSC (Differential Scanning Calorimetry) is the technique of dynamic differential Calorimetry. Using this technique, the melting temperature can be measured by heating the sample until a thermal, i.e. an endothermic or exothermic, reaction is detected by means of ultrasensitive sensors. The DSC cell/sample chamber was purged with 100 ml/min of ultra-high purity nitrogen. The instrument was calibrated with high purity Indium. The sample was placed into an open aluminum DSC pan and measured against an empty reference pan. About 2 mg of sample being placed into the bottom of the pan and lightly tapped down to ensure good contact with the pan. The instrument was programmed to heat at a heating rate of 10° C./min in the temperature range between 50° C. and 300° C. • Microscope: A Lieca Microscope with Linkam Hot stage microscopy (TMS-94) system with polarized light, CCD camera and Linksys 32 data software. • HPLC: High Performance Liquid Chromatography Separation Module with PDA detector, Make Waters, Model No 2695. • KF: Moisture content was analyzed by using Karl Fisher Autotitrator 795 KFT Titrino make Metrohm.

[1] = 5° C. ± 3° C. (Refrigerator), Month 1
[2] = 5° C. ± 3° C. (Refrigerator), Month 2
[3] = 5° C. ± 3° C. (Refrigerator), Month 3
[4] = 5° C. ± 3° C. (Refrigerator), Month 6
[5] = 25° C. ± 2° C./60% ±5% RH, Month 1
[6] = 25° C. ± 2° C./60% ±5% RH, Month 2
[7] = 25° C. ± 2° C./60% ±5% RH, Month 3
[8] = 25° C. ± 2° C./60% ±5% RH, Month 6
[9] = 30° C. ± 2° C./65% ±5% RH (Real Time), Month 1
[10] = 30° C. ± 2° C./65% ±5% RH (Real Time), Month 2
[11] = 30° C. ± 2° C./65% ±5% RH (Real Time), Month 3
[12] = 30° C. ± 2° C./65% ±5% RH (Real Time), Month 6
[13] = 40° C. ± 2° C./75% ±5% RH, Month 1
[14] = 40° C. ± 2° C./75% ±5% RH, Month 2
[15] = 40° C. ± 2° C./75% ±5% RH, Month 3
[16] = 40° C. ± 2° C./75% ±5% RH, Month 6

**Q.** For C#Cc1cccc(Nc2ncnc3cc(OCCOC)c(OCCOC)cc23)c1.Cl [Erlotinib hydrochloride, 4-(3-Ethynylphenylamino)-6,7-bis(2-methoxyethoxy)-quinazoline], which DSC [1] is on record?
**A.** Complies

**Q.** What about the IR [1] of the same compound?
**A.** Complies

**Q.** And the PXRD [1]?
**A.** Complies

**Q.** What about the DSC [2] of the same compound?
**A.** Complies

**Q.** And the IR [2]?
**A.** Complies

**Q.** And the PXRD [2]?
**A.** Complies

**Q.** And the DSC [3]?
**A.** Complies

**Q.** And the IR [3]?
**A.** Complies

**Q.** What about the PXRD [3] of the same compound?
**A.** Complies

**Q.** And the DSC [4]?
**A.** Complies

**Q.** What about the IR [4] of the same compound?
**A.** Complies

**Q.** And the PXRD [4]?
**A.** Complies

**Q.** What about the DSC [5] of the same compound?
**A.** Complies

**Q.** What about the IR [5] of the same compound?
**A.** Complies

**Q.** And the PXRD [5]?
**A.** Complies

**Q.** What about the DSC [6] of the same compound?
**A.** Complies

**Q.** What about the IR [6] of the same compound?
**A.** Complies

**Q.** What about the PXRD [6] of the same compound?
**A.** Complies

**Q.** What about the DSC [7] of the same compound?
**A.** Complies

**Q.** What about the IR [7] of the same compound?
**A.** Complies

**Q.** What about the PXRD [7] of the same compound?
**A.** Complies

**Q.** What about the DSC [8] of the same compound?
**A.** Complies

**Q.** And the IR [8]?
**A.** Complies

**Q.** And the PXRD [8]?
**A.** Complies

**Q.** And the DSC [9]?
**A.** Complies

**Q.** What about the IR [9] of the same compound?
**A.** Complies

**Q.** And the PXRD [9]?
**A.** Complies

**Q.** And the DSC [10]?
**A.** Complies

**Q.** And the IR [10]?
**A.** Complies

**Q.** And the PXRD [10]?
**A.** Complies

**Q.** And the DSC [11]?
**A.** Complies

**Q.** What about the IR [11] of the same compound?
**A.** Complies

**Q.** And the PXRD [11]?
**A.** Complies

**Q.** And the DSC [12]?
**A.** Complies

**Q.** What about the IR [12] of the same compound?
**A.** Complies

**Q.** And the PXRD [12]?
**A.** Complies

**Q.** What about the DSC [13] of the same compound?
**A.** Complies

**Q.** What about the IR [13] of the same compound?
**A.** Complies

**Q.** And the PXRD [13]?
**A.** Complies

**Q.** And the DSC [14]?
**A.** Complies

**Q.** What about the IR [14] of the same compound?
**A.** Complies

**Q.** And the PXRD [14]?
**A.** Complies

**Q.** What about the DSC [15] of the same compound?
**A.** Complies

**Q.** And the IR [15]?
**A.** Complies

**Q.** What about the PXRD [15] of the same compound?
**A.** Complies

**Q.** And the DSC [16]?
**A.** Complies

**Q.** And the IR [16]?
**A.** Complies

**Q.** What about the PXRD [16] of the same compound?
**A.** Complies

**Q.** What about the “retention of polymorphic and chemical identity on storage” value (both stability studies, all storage conditions) of the same compound?
**A.** retained the same polymorphic and chemical identity at least up to six months
